Values joined by “and” are separate entries in the source; they are usually repeats but may differ in a detail not shown here. Equal values may be shown once. Inconclusive results and toxic doses are left out. How the source made its calls: active means survival T/C of 150% or more; inactive means T/C below 125% in these data.
Tested on: P388 leukemia ip, CD2F1 mice, survival T/C
Assay: NCI In Vivo Anticancer Drug Screen. Data for tumor model P388 Leukemia (intraperitoneal) in CD2F1 (CDF1) mice
Details: endpoint: median survival time, higher = longer survival
Summary of the method: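 Mice carrying the transplanted tumor received test compound or vehicle. Survival was recorded in each group, and the value is the treated-group measurement divided by that of the vehicle-treated control group.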

[1] = dose: 50.0 mg/kg/injection, schedule: Q01DX009 (ip), vehicle: saline with Tween-80
[2] = dose: 50.0 mg/kg/injection, schedule: Q01DX005 (ip), vehicle: saline with Tween-80
[3] = dose: 50.0 mg/kg/injection, schedule: Q01DX009 (ip), vehicle: saline
[4] = dose: 100.0 mg/kg/injection, schedule: Q01DX005 (ip), vehicle: saline with Tween-80
[5] = dose: 100.0 mg/kg/injection, schedule: Q01DX009 (ip), vehicle: saline
[6] = dose: 200.0 mg/kg/injection, schedule: Q01DX005 (ip), vehicle: saline with Tween-80
[7] = dose: 200.0 mg/kg/injection, schedule: Q01DX009 (ip), vehicle: saline
[8] = dose: 100.0 mg/kg/injection, schedule: Q01DX009 (ip), vehicle: saline with Tween-80
[9] = dose: 200.0 mg/kg/injection, schedule: Q01DX009 (ip), vehicle: saline with Tween-80
[10] = dose: 50.0 mg/kg/injection, schedule: Q01DX005 (ip), vehicle: Klucel (hydroxypropylcellulose) (HPC)
[11] = dose: 100.0 mg/kg/injection, schedule: Q01DX005 (ip), vehicle: Klucel (hydroxypropylcellulose) (HPC)
[12] = dose: 200.0 mg/kg/injection, schedule: Q01DX005 (ip), vehicle: Klucel (hydroxypropylcellulose) (HPC)
[13] = dose: 60.0 mg/kg/injection, schedule: Q01DX005 (ip), vehicle: saline with Tween-80
[14] = dose: 120.0 mg/kg/injection, schedule: Q01DX005 (ip), vehicle: saline with Tween-80
[15] = dose: 240.0 mg/kg/injection, schedule: Q01DX005 (ip), vehicle: saline with Tween-80

Measured: T/C

O=C(c1ccc(O)cc1)c1ccc(O)cc1O
inactive: dose: 66.0 mg/kg/injection, schedule: Q01DX001 (ip), vehicle: saline 100 % of control | dose: 150.0 mg/kg/injection, schedule: Q01DX001 (ip), vehicle: saline 88 % of control | dose: 200.0 mg/kg/injection, schedule: Q01DX001 (ip), vehicle: saline 100 % of control | dose: 400.0 mg/kg/injection, schedule: Q01DX001 (ip), vehicle: saline 100 % of control

COC(=O)[C@@]12OC[C@]34[C@H]([C@@H](O)[C@@H]1O)[C@@]1(C)C=C(OC5OC(CO)C(O)C(O)C5O)C(=O)C(C)[C@@H]1C[C@H]3OC(=O)[C@H](OC(=O)C=C(C)C)[C@@H]24 (stereo not given in full)
inactive: dose: 0.25 mg/kg/injection, schedule: Q01DX009 (ip), vehicle: saline + alcohol 107 % of control | dose: 0.5 mg/kg/injection, schedule: Q01DX009 (ip), vehicle: saline + alcohol 112 % of control | dose: 1.0 mg/kg/injection, schedule: Q01DX009 (ip), vehicle: saline + alcohol 112 % of control | dose: 2.0 mg/kg/injection, schedule: Q01DX009 (ip), vehicle: saline + alcohol 106 % of control | dose: 4.0 mg/kg/injection, schedule: Q01DX009 (ip), vehicle: saline + alcohol 112 % of control | dose: 8.0 mg/kg/injection, schedule: Q01DX009 (ip), vehicle: saline + alcohol 111 % of control

CCCCCCC[n+]1cccc(C(=O)N2CCOCC2)c1
inactive: dose: 12.5 mg/kg/injection, schedule: Q01DX009 (ip), vehicle: saline with Tween-80 104 % of control | dose: 25.0 mg/kg/injection, schedule: Q01DX009 (ip), vehicle: saline with Tween-80 98 % of control | [1] 100 % of control

CCOC(=O)C(C(=O)C(F)(F)C(F)(F)C(F)(F)C(=O)C(C(=O)OCC)=P(c1ccccc1)(c1ccccc1)c1ccccc1)=P(c1ccccc1)(c1ccccc1)c1ccccc1
inactive: dose: 100.0 mg/kg/injection, schedule: Q01DX001 (ip), vehicle: saline with Tween-80 108 % of control | dose: 200.0 mg/kg/injection, schedule: Q01DX001 (ip), vehicle: saline with Tween-80 99 % of control | dose: 400.0 mg/kg/injection, schedule: Q01DX001 (ip), vehicle: saline with Tween-80 108 % of control

NC(CS)C(=O)O (stereo not given)
inactive: [2] 101 % of control | [3] 115 % of control | [4] 107 % of control | [5] 110 % of control | [6] 110 % of control | [7] 109 % of control

CC1(O)Cn2c(=O)c3cc4ccccc4cc3c(=O)n2CC1(C)Br (stereo not given)
inactive: dose: 50.0 mg/kg/injection, schedule: Q04DX002 (ip), vehicle: DMSO 105 % of control | dose: 100.0 mg/kg/injection, schedule: Q04DX002 (ip), vehicle: DMSO 101 % of control | dose: 200.0 mg/kg/injection, schedule: Q04DX002 (ip), vehicle: DMSO 101 % of control

Cc1c(F)cccc1[N+](=O)[O-]
inactive: [1] 104 % of control | [8] 114 % of control | [9] 123 % of control

C/C(=C\C(=O)c1cccc(F)c1)N1CCN(c2ccc(F)cc2)CC1
inactive: [10] 100 % of control | [11] 96 % of control | [12] 100 % of control

O=C(Nc1ccc(Cl)cc1)Nc1nnc2nc(C3(c4nc5nnc(NC(=O)Nc6ccc(Cl)cc6)n5[nH]c4=O)Cc4ccccc4C3=O)c(=O)[nH]n12
inactive: [13] 103 % of control | [14] 107 % of control | [15] 98 % of control

COc1onc(C)c1CC(=O)O
inactive: dose: 18.75 mg/kg/injection, schedule: Q01DX005 (ip), vehicle: saline with Tween-80 97 % of control | dose: 37.5 mg/kg/injection, schedule: Q01DX005 (ip), vehicle: saline with Tween-80 101 % of control | dose: 75.0 mg/kg/injection, schedule: Q01DX005 (ip), vehicle: saline with Tween-80 95 % of control | dose: 150.0 mg/kg/injection, schedule: Q01DX005 (ip), vehicle: saline with Tween-80 99 % of control

CC1OC(OC2C(OC3C(OC4CCC5(C)C(CCC6(C)C5CC=C5C7CC(C)(C)CCC7(C(=O)O)CCC56C)C4(C)C)OCC(O)C3O)OC(CO)C(O)C2O)C(O)C(O)C1O (stereo not given)
inactive: dose: 3.75 mg/kg/injection, schedule: Q01DX005 (ip), vehicle: distilled water + Tween-80 98 % of control | dose: 7.5 mg/kg/injection, schedule: Q01DX005 (ip), vehicle: distilled water + Tween-80 100 % of control

C(#CC1CO1)CCCC#CC1CO1 (stereo not given)
inactive: dose: 12.5 mg/kg/injection, schedule: Q01DX005 (ip), vehicle: saline with Tween-80 106 % of control | dose: 25.0 mg/kg/injection, schedule: Q01DX005 (ip), vehicle: saline with Tween-80 110 % of control | [2] 107 % of control and 124 % of control

CC1(C)CC(OP(=O)(OCCN2CC2)OCCN2CC2)CC(C)(C)N1O
inactive: [1] 107 % of control | [8] 100 % of control | [9] 96 % of control

CCOC(=O)NC(=S)Nc1ccn(C)c1
inactive: dose: 50.0 mg/kg/injection, schedule: Q04DX003 (ip), vehicle: saline with Tween-80 99 % of control and 101 % of control | dose: 100.0 mg/kg/injection, schedule: Q04DX003 (ip), vehicle: saline with Tween-80 100 % of control and 94 % of control and 97 % of control | dose: 200.0 mg/kg/injection, schedule: Q04DX003 (ip), vehicle: saline with Tween-80 100 % of control | dose: 400.0 mg/kg/injection, schedule: Q04DX003 (ip), vehicle: saline with Tween-80 98 % of control and 103 % of control and 97 % of control

[CH3][Sn]([c]1ccccc1)[c]1ccccc1
inactive: [3] 105 % of control | [5] 98 % of control | [7] 113 % of control

Cc1ccccc1NC(=O)C1C(=O)N(c2ccccc2C)C(=O)/C1=N/O (stereo not given)
inactive: [13] 99 % of control | [14] 97 % of control | [15] 94 % of control

COC(=O)CCCCC(=O)OC
inactive: dose: 100.0 mg/kg/injection, schedule: Q04DX003 (ip), vehicle: saline 109 % of control | dose: 200.0 mg/kg/injection, schedule: Q04DX003 (ip), vehicle: saline 109 % of control | dose: 400.0 mg/kg/injection, schedule: Q04DX003 (ip), vehicle: saline 109 % of control

CCOC(=O)Nc1cc2c(c(N)n1)N=C(c1ccc(C)cc1C)CN2
inactive: dose: 5.0 mg/kg/injection, schedule: Q01DX005 (ip), vehicle: saline with Tween-80 109 % of control | dose: 10.0 mg/kg/injection, schedule: Q01DX005 (ip), vehicle: saline with Tween-80 115 % of control | dose: 20.0 mg/kg/injection, schedule: Q01DX005 (ip), vehicle: saline with Tween-80 123 % of control

O=C1c2ccccc2C2(O)C3c4ccccc4CCN3CN12 (stereo not given)
inactive: [10] 100 % of control | [11] 101 % of control | [12] 101 % of control

C=C(C)/C=N/O
inactive: [10] 113 % of control | [11] 104 % of control | [12] 106 % of control

Cc1cc(N=Cc2c(CO)cnc(C)c2O)c(N=Cc2c(CO)cnc(C)c2O)cc1C
inactive: [10] 98 % of control | [13] 93 % of control | [11] 96 % of control | [14] 104 % of control | [12] 91 % of control | [15] 94 % of control

CCC(=O)OCCN(CCOC(=O)CC)C(=O)C(C)OC(=O)CC (stereo not given)
inactive: dose: 25.0 mg/kg/injection, schedule: Q01DX005 (ip), vehicle: saline 105 % of control | dose: 50.0 mg/kg/injection, schedule: Q01DX005 (ip), vehicle: saline 110 % of control | dose: 100.0 mg/kg/injection, schedule: Q01DX005 (ip), vehicle: saline 105 % of control | dose: 200.0 mg/kg/injection, schedule: Q01DX005 (ip), vehicle: saline 110 % of control

COC1C(/C=C2\CC(=O)N(c3ccccc3)C2=O)OC2OC(C)(C)OC21 (stereo not given)
inactive: dose: 100.0 mg/kg/injection, schedule: Q01DX001 (ip), vehicle: suspension in saline 97 % of control | dose: 200.0 mg/kg/injection, schedule: Q01DX001 (ip), vehicle: suspension in saline 102 % of control | dose: 400.0 mg/kg/injection, schedule: Q01DX001 (ip), vehicle: suspension in saline 100 % of control

NCCCCC(C(=O)NCC(=O)O)N(C(=O)OCc1ccccc1)C(=O)OCc1ccccc1 (stereo not given)
inactive: [2] 101 % of control | [4] 101 % of control | [6] 90 % of control

CC/C(=C(/O)c1ccccc1)c1nc2ccc(Cl)cc2[nH]c1=O
inactive: dose: 60.0 mg/kg/injection, schedule: Q01DX005 (ip), vehicle: Klucel + Tween-80 100 % of control | dose: 120.0 mg/kg/injection, schedule: Q01DX005 (ip), vehicle: Klucel + Tween-80 93 % of control | dose: 240.0 mg/kg/injection, schedule: Q01DX005 (ip), vehicle: Klucel + Tween-80 98 % of control

Cc1oc(NC(=O)C(=O)O)c(C#N)c1C
inactive: [1] 88 % of control | [8] 102 % of control | [9] 88 % of control

— PubChem BioAssay AID330 (DTP/NCI, 2004)
